Measurements: US10882860B2, “Treatment of osteoarthritis” (Samumed, LLC, priority 2015, dated 2021)
Marks after values point to notes of the source that are not given here.

Experiments:
[1] = tested on: moderate-to-severe symptomatic knee OA subjects; test: Phase 1 clinical study: efficacy (WOMAC, Physician Global Assessment, strict OARSI responders); format: in vivo, human; settings: for decrease in median WOMAC total score from baseline: FIG. 24B; for decrease in mean WOMAC total score [0-96] from baseline: FIG. 24A
Excerpt: The study was a first-in-human, multicenter, 24-week, placebo-controlled, single-dose, dose-escalation safety study of a Wnt pathway inhibitor in subjects suffering from moderate to severe symptomatic knee OA. The sample size was 20 subjects (randomized 4:1, 16 active: 4 placebo) per dosing cohort. Inclusion criteria included: Age, 50-75 years; Western Ontario and McMaster Universities Arthritis Index (WOMAC) Total score, 36-72 (out of 96); Kellgren-Lawrence grade, 2 or 3; and a willingness to omit pain medication for 24 hours prior to pain assessments. Exclusion criteria included: BMI>40; and treatment with IA steroids within 2 months or HA derivatives within 6 months prior to injection. A full list of the inclusion and exclusion criteria for this study can be found on clinicaltrials.gov (NCT02095548).
The dosing sequence included suspension compositions of either 0.03 mg, 0.07 mg, or 0.23 mg of the compound of Formula (I) (Form 1) per 2 mL injection in a vehicle containing 0.5% carboxymethylcellulose sodium and 0.05% polysorbate 80 in pH 7.4 phosphate buffered saline. The placebo contained only the diluent of 0.5% carboxymethylcellulose sodium and 0.05% polysorbate 80 in pH 7.4 phosphate buffered saline. The subjects were given a single, intra-articular injection in the target knee on Treatment Day 1 and participated in a follow-up period of 24 weeks.
Safety, pharmacokinetics (PK), biomarker, and efficacy data were collected at baseline and during the 24-week follow-up period. Safety data included adverse events (AEs), concomitant medications, clinical laboratory sampling, medical history, vital signs, ECGs, hip bone density (DXA) analysis, qCT of the target knee, and evaluation of bone edema via MM. For PK data, samples were collected 0, 4, and 24 hours post dose, and at Weeks 4 and 12. Biomarker data included data for procollagen type 1 N-propeptide (P1NP), beta C-terminal telopeptide of type 1 collagen (βCTX), and cartilage oligomeric matrix protein (COMP). Efficacy data included measurements of WOMAC Total score, WOMAC Function and Pain subscores, pain VAS, Physician Global Assessment of Disease Activity, MM, and radiographs. Efficacy assessments were used to determine the percentage of OMERACT-OARSI “strict” responders. Exploratory analyses of efficacy outcomes were conducted using a baseline-adjusted repeated measures analysis of covariance (ANCOVA) in the Intention-to-Treat (ITT) population. The sponsor was unblinded after Week 12 for each cohort; site investigators remained blinded. All AEs reported in this study were […]. Investigator opinion regarding whether AEs were related to the compound of Formula (I) was also collected for informational purposes.
Strict responders were classified by having either a WOMAC Function subscore improvement of ≥50% with a corresponding Function score improvement of ≥20 points (scaled to [0-100]), or a WOMAC Pain subscore improvement of ≥50% with a corresponding Pain score improvement of ≥20 points (scaled to [0-100]).

[2] = Competitive slurry experiments between polymorph forms (thermodynamic stability); format: physicochemical; settings: competitive slurry of mixed forms
Procedure: In order to find out the thermodynamic stability between the different forms, several competitive slurry experiments were carried out. Form 1, Form 2, Form 2*, Form 3, Form 4, Form 4*, Form 4**, Form 5, Form 7, Form 8, Form 9, Form 10, Form 11, Form 11*, and Form 13 (10 mg for each) was mixed and slurried in 2 mL of solvent at both RT and 50° C. The solids were slurried for 3-5 days and then analyzed by XRD.
In order to find out the thermodynamic stability between Form 13 and Form 9, several competitive slurry experiments were carried out. 15 mg of Form 1, Form 9 and Form 13 solid were mixed in 1 mL of toluene, IPAc, and n-butyl acetate, and slurried for 3 days at RT and 50° C.
The residual solid was analyzed by XRD.

Q: Which “WOMAC function [0-68], Week 12 Actual [Mean (SD)]” value ([1]; 0.03 mg cohort, N 17) does the source give for `CC(C)CC(=O)Nc1cncc(-c2ccc3[nH]nc(-c4nc5c(-c6cccc(F)c6)cncc5[nH]4)c3c2)c1` [compound of Formula (I)] here?
A: Its value is 20.3.

Q: And the “WOMAC function [0-68], Week 12 Change from baseline [Mean (SD)]” value ([1]; 0.03 mg cohort, N 17)?
A: Its value is −18.4.

Q: And the “WOMAC pain [0-20], Week 12 Actual [Mean (SD)]” value ([1]; 0.03 mg cohort, N 17)?
A: Its value is 6.3.

Q: What about the “WOMAC pain [0-20], Week 12 Change from baseline [Mean (SD)]” value ([1]; 0.03 mg cohort, N 17) of the same compound?
A: Its value is −4.4.

Q: And the “decrease in median WOMAC total score from baseline” value ([1]; 0.03 mg cohort)?
A: The value was “greater than 25”.

Q: And the “median decrease in physician global assessment from baseline” value ([1]; 0.03 mg cohort, FIG. 25B)?
A: Its value is “about 48”.

Q: And the “WOMAC function [0-68], Week 12 Actual [Mean (SD)]” value ([1]; 0.07 mg cohort, N 16)?
A: The value was 18.4.

Q: And the “WOMAC function [0-68], Week 12 Change from baseline [Mean (SD)]” value ([1]; 0.07 mg cohort, N 16)?
A: Its value is −19.2.

Q: What about the “WOMAC pain [0-20], Week 12 Actual [Mean (SD)]” value ([1]; 0.07 mg cohort, N 16) of the same compound?
A: The value was 5.3.

Q: And the “WOMAC pain [0-20], Week 12 Change from baseline [Mean (SD)]” value ([1]; 0.07 mg cohort, N 16)?
A: Its value is −5.6.

Q: And the “decrease in mean WOMAC total score [0-96] from baseline” value ([1]; 0.07 mg cohort)?
A: The value was “about 27”.

Q: What about the “decrease in median WOMAC total score from baseline” value ([1]; 0.07 mg cohort) of the same compound?
A: The value was “greater than 25”.

Q: What about the “odds ratio (OR) of strict OARSI response vs placebo” value ([1]; 0.07 mg cohort, Week 12, P=0.081) of the same compound?
A: Its value is 4.2.

Q: What about the “percentage of strict OARSI responders” value ([1]; 0.07 mg cohort, Week 12, placebo 42%) of the same compound?
A: The value was 75%.

Q: What about the “WOMAC function [0-68], Week 12 Actual [Mean (SD)]” value ([1]; 0.23 mg cohort, N 16) of the same compound?
A: Its value is 22.6.

Q: And the “WOMAC function [0-68], Week 12 Change from baseline [Mean (SD)]” value ([1]; 0.23 mg cohort, N 16)?
A: The value was −17.8.

Q: And the “WOMAC pain [0-20], Week 12 Actual [Mean (SD)]” value ([1]; 0.23 mg cohort, N 16)?
A: Its value is 5.8.

Q: And the “WOMAC pain [0-20], Week 12 Change from baseline [Mean (SD)]” value ([1]; 0.23 mg cohort, N 16)?
A: The value was −5.7.

Q: What about the “decrease in mean WOMAC total score [0-96] from baseline” value ([1]; all cohorts (0.03, 0.07, 0.23 mg)) of the same compound?
A: The value was no less than 23.

Q: And the “decrease in mean physician global assessment score [0-100] from baseline” value ([1]; all cohorts (0.03, 0.07, 0.23 mg), FIG. 25A)?
A: Its value is no less than 30.

Q: And the “Form after 3 days; dry” value ([2]; Acetone, 50° C.)?
A: Its value is “Form 2*/Form 2*”.

Q: What about the “Form after 3 days; wet” value ([2]; Acetone, 50° C.) of the same compound?
A: Its value is “Form 2*/Form 2*”.

Q: And the “Form after 5 days; dry” value ([2]; Acetone, 50° C.)?
A: Its value is “Form 2*/Form 2*”.

Q: And the “Form after 5 days; wet” value ([2]; Acetone, 50° C.)?
A: The value was “Form 2*/Form 2*”.

Q: And the “Form after 3 days; dry” value ([2]; Acetone, RT)?
A: Its value is “Form 2*/Form 2*”.

Q: What about the “Form after 3 days; wet” value ([2]; Acetone, RT) of the same compound?
A: The value was “Form 2*/Form 2*”.

Q: What about the “Form after 5 days; dry” value ([2]; Acetone, RT) of the same compound?
A: The value was “Form 2*/Form 2*”.

Q: What about the “Form after 5 days; wet” value ([2]; Acetone, RT) of the same compound?
A: Its value is “Form 2*/Form 2*”.

Q: And the “Form after 3 days; dry” value ([2]; EA, 50° C.)?
A: Its value is “Form 4/Form 4”.

Q: And the “Form after 3 days; wet” value ([2]; EA, 50° C.)?
A: Its value is “Form 4/Form 4”.

Q: And the “Form after 5 days; dry” value ([2]; EA, 50° C.)?
A: Its value is “Form 4*/Form 4*”.

Q: What about the “Form after 5 days; wet” value ([2]; EA, 50° C.) of the same compound?
A: The value was “Form 4*/Form 4*”.

Q: What about the “Form after 3 days; dry” value ([2]; EA, RT) of the same compound?
A: Its value is “Form 4/Form 4”.

Q: And the “Form after 3 days; wet” value ([2]; EA, RT)?
A: Its value is “Form 4/Form 4”.

Q: And the “Form after 5 days; dry” value ([2]; EA, RT)?
A: The value was “Form 4/Form 4”.

Q: And the “Form after 5 days; wet” value ([2]; EA, RT)?
A: Its value is “Form 4/Form 4”.

Q: And the “Form after 3 days; dry” value ([2]; EtOH, 50° C.)?
A: The value was “Form 2*/Form 2*”.

Q: What about the “Form after 3 days; wet” value ([2]; EtOH, 50° C.) of the same compound?
A: The value was “Form 2*/Form 2*”.

Q: And the “Form after 5 days; dry” value ([2]; EtOH, 50° C.)?
A: Its value is “Form 2*/Form 2*”.

Q: And the “Form after 5 days; wet” value ([2]; EtOH, 50° C.)?
A: Its value is “Form 2*/Form 2*”.

Q: What about the “Form after 3 days; dry” value ([2]; EtOH, RT) of the same compound?
A: Its value is “Form 2*/Form 2*”.

Q: What about the “Form after 3 days; wet” value ([2]; EtOH, RT) of the same compound?
A: The value was “Form 2*/Form 2*”.

Q: And the “Form after 5 days; dry” value ([2]; EtOH, RT)?
A: Its value is “Form 2*/Form 2*”.

Q: And the “Form after 5 days; wet” value ([2]; EtOH, RT)?
A: Its value is “Form 2*/Form 2*”.

Q: And the “Form after 3 days; dry” value ([2]; MeOH, 50° C.)?
A: Its value is “Form 2*/Form 2*”.

Q: And the “Form after 3 days; wet” value ([2]; MeOH, 50° C.)?
A: The value was “Form 2*/Form 2*”.

Q: What about the “Form after 5 days; dry” value ([2]; MeOH, 50° C.) of the same compound?
A: The value was “Form 2*/Form 2*”.

Q: And the “Form after 5 days; wet” value ([2]; MeOH, 50° C.)?
A: Its value is “Form 2*/Form 2*”.

Q: And the “Form after 3 days; dry” value ([2]; MeOH, RT)?
A: Its value is “Form 2*/Form 2*”.

Q: And the “Form after 3 days; wet” value ([2]; MeOH, RT)?
A: Its value is “Form 2*/Form 2*”.

Q: What about the “Form after 5 days; dry” value ([2]; MeOH, RT) of the same compound?
A: The value was “Form 2*/Form 2*”.

Q: And the “Form after 5 days; wet” value ([2]; MeOH, RT)?
A: The value was “Form 2*/Form 2*”.

Q: And the “Form after 3 days; dry” value ([2]; water, 50° C.)?
A: The value was “Form 13/Form 13”.

Q: And the “Form after 3 days; wet” value ([2]; water, 50° C.)?
A: Its value is “Form 13/Form 13”.

Q: And the “Form after 5 days; dry” value ([2]; water, 50° C.)?
A: The value was “Form 13/Form 13”.

Q: And the “Form after 5 days; wet” value ([2]; water, 50° C.)?
A: The value was “Form 13/Form 13”.

Q: And the “Form after 3 days; dry” value ([2]; water, RT)?
A: Its value is “Form 13/Form 13”.

Q: And the “Form after 3 days; wet” value ([2]; water, RT)?
A: Its value is “Form 13/Form 13”.

Q: And the “Form after 5 days; dry” value ([2]; water, RT)?
A: The value was “Form l & Form 13”.

Q: And the “Form after 5 days; wet” value ([2]; water, RT)?
A: Its value is “Form 13”.
